Test results as given in patent publication US20080287445A1, “Prokineticin 2 receptor antagonists” (priority 2005, published 2008).
“And” between values parts separate entries of the source, which are not always exact repeats. Equal values may be shown once.

Molecular target: T1, GPR73 (prokineticin 1 receptor) (Homo sapiens, UniProt Q8TCW9)
T1 construct: expressed in transfected cells; host or cells: HEK 293
Experiment: PK1 functional assay: Ca2+ mobilization screening for PK1 antagonists on the FLIPR
Assay type: cell-based
Settings: HEK 293 GPR73 cells, multiple values = multiple testing; for inhibition at 10 µM: HEK293, 10 μM compound, read-out: Ca^2+ Mobilization % Inh @ 10 μM; for IC50: PK1 ligand preparation at its EC50, read-out: Ca^2+ Mobilization IC50
Method in brief: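 HEK293 cells expressing human GPR73 were loaded with Calcium Plus dye, then on FLIPR given compound for 4 min 15 s before PK1 ligand at its predetermined EC50. Baseline-subtracted fluorescence over 1 min 45 s gave percent inhibition versus maximal signal; IC50 fitted.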

T1 sequence (Q8TCW9 whole entry, species assumed): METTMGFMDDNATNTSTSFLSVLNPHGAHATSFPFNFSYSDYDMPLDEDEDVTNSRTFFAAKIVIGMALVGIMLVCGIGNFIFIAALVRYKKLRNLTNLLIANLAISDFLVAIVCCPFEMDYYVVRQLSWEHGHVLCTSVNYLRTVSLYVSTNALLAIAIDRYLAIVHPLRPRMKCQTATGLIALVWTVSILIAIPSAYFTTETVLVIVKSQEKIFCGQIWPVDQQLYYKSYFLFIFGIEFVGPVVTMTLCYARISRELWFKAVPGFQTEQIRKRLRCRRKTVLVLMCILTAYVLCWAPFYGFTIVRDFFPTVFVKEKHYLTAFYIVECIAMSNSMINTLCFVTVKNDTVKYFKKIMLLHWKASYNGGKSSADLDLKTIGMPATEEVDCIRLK

Row | inhibition at 10 µM | IC50 | Ca^2+ Mobilization % Inh @ 10 μM (10 μM compound, 10 µM) | SMILES
1 | 95% | 251 nM |  | Nc1ncccc1CNc1nc(=O)n(Cc2ccc3snnc3c2)c(=O)n1Cc1ccc2c(c1)CCO2 [Cpd 242]
2 | 75% | 914 nM |  | Cc1cc(C)c(CNc2nc(=O)n(Cc3ccc4snnc4c3)c(=O)n2Cc2ccc3c(c2)CCO3)cn1 [Cpd 243]
3 | 94% | 121 nM |  | Cn1nnc2cc(Cn3c(=O)nc(NCc4cccnc4N)n(Cc4ccc5c(c4)CCO5)c3=O)ccc21 [Cpd 244]
4 | 45% | > 10000 nM |  | Cc1cc(C)c(CNc2nc(=O)n(Cc3ccc4c(c3)nnn4C)c(=O)n2Cc2ccc3c(c2)CCO3)cn1 [Cpd 245]
5 | 48% | 8320 nM |  | COc1ccc(Cn2c(NCc3c(N)nc4c(c3-c3ccccc3)CCC4)nc(=O)n(Cc3ccc(OC)cc3)c2=O)cc1 [Cpd 246]
6 | 100% | 27 nM and 30 nM | 97% | COc1ccc(Cn2c(NCc3cnc(C)cn3)nc(=O)n(Cc3ccc(OC)cc3)c2=O)cc1 [Cpd 247]
7 | 103% | 34 nM |  | COc1ccc(Cn2c(NCc3cnc(C)nc3N)nc(=O)n(Cc3ccc(OC)cc3)c2=O)cc1 [Cpd 248]
8 | 90% | 194 nM |  | COc1ccc(Cn2c(SCc3cccnc3N)cc(=O)n(Cc3ccc(OC)cc3)c2=O)cc1 [Cpd 249]
9 | 48% | 8630 nM |  | COc1ccc(Cn2c(NCc3c(COCc4ccccc4)cc(C)nc3N)nc(=O)n(Cc3ccc(OC)cc3)c2=O)cc1 [Cpd 250]
10 | 93% | 225 nM |  | Cc1cc(CO)c(CNc2nc(=O)n(Cc3ccc4c(c3)CCO4)c(=O)n2Cc2ccc(OC(F)F)cc2)c(N)n1 [Cpd 251]
11 | 71% | 1350 nM |  | COCCCCCn1c(=O)nc(NCc2c(C)cc(C)nc2N)n(Cc2ccc(OC)cc2)c1=O [Cpd 252, 6-[(2-Amino-4,6-dimethyl-pyridin-3-ylmethyl)-amino]-1-(4-methoxy-benzyl)-3-(5-methoxy-pentyl)-1H-[1,3,5]triazine-2,4-dione]
12 | 97% | 9 nM |  | COCCCCCn1c(NCc2c(C)cc(C)nc2N)nc(=O)n(Cc2ccc(Cl)cc2)c1=O [Cpd 253]
13 | 96% | 98 nM |  | COCCCCCn1c(NCc2c(C)cc(C)nc2N)nc(=O)n(Cc2ccccc2)c1=O [Cpd 254]
14 | 99% | 78 nM |  | COCCCCCn1c(NCc2c(C)cc(C)nc2N)nc(=O)n(Cc2ccc(Cl)c(Cl)c2)c1=O [Cpd 255]
15 | 99% | 118 nM |  | COCCCCCn1c(NCc2cccnc2N)nc(=O)n(Cc2ccc(Cl)cc2)c1=O [Cpd 256]
16 | 76% | 1520 nM |  | COCCCCCn1c(NCc2cccnc2N)nc(=O)n(Cc2ccc(OC(F)F)cc2)c1=O [Cpd 257]
17 | 87% | 772 nM |  | Cc1cnc(CNc2nc(=O)n(Cc3ccc4c(c3)CCO4)c(=O)n2Cc2ccc(OC(F)F)cc2)cn1 [Cpd 261]
18 | 0.89% | > 10000 nM |  | Cc1cc(-c2ccc(F)cc2)nc(N)c1CNc1nc(=O)n(Cc2ccc3c(c2)CCO3)c(=O)n1Cc1ccc(OC(F)F)cc1 [Cpd 262]
19 | 99% | 94 nM |  | COc1ccc(Cn2c(NCc3c(N)nc(C)c(C)c3C)nc(=O)n(Cc3ccc(OC)cc3)c2=O)cc1 [Cpd 263]
20 | 95% | 74 nM |  | COc1ccc(Cn2c(NCc3c(N)nc4c(c3C)CCC4)nc(=O)n(Cc3ccc(OC)cc3)c2=O)cc1 [Cpd 264]
21 | 95% | 441 nM |  | CCCc1cc(CCC)c(CNc2nc(=O)n(Cc3ccc(OC)cc3)c(=O)n2Cc2ccc(OC)cc2)c(N)n1 [Cpd 265]
22 | 10% | > 10000 nM |  | COc1ccc(Cn2c(NCc3cccc(C)n3)nc(=O)n(Cc3ccc(OC)cc3)c2=O)cc1 [Cpd 267]
23 | 24% | > 10000 nM |  | Nc1cc(Cn2c(=O)nc(NCc3cccnc3N)n(Cc3ccc(OC(F)F)cc3)c2=O)ccc1O [Cpd 268]
